# Test results from ChEMBL document CHEMBL4419176, “Compositions and methods for treating cancer” (2017).
# Activity calls are given as the source filed them. The calls are words filed in the database; no cut-off is given here.
# How the values were obtained:
# [1] = target: Diacylglycerol kinase alpha (Homo sapiens) (UniProt P23743); assay: Inhibition of FLAG-tagged DGKa (unknown origin) using lipids and [gamma-32P]-ATP incubated for 15 mins by scintillation counting method
# Homo sapiens [2] = assay: Antitumor activity against human G2 cells xenografted in orally dosed mouse assessed as increase in median mouse survival; type: functional, organism-based
# Homo sapiens [3] = organism: Homo sapiens; assay: Increase in PDGFRA expression in human G88 cells at 3 uM by immunoblot analysis; type: functional, cell-based
# [4] = Cytotoxicity in human JWL578 cells assessed as reduction in cell viability incubated for 2 to 4 days by Trypan blue exclusion based hemocytometry; type: functional
# Homo sapiens [5] = organism: Homo sapiens; assay: Cytotoxicity in human MPanc96 cells with TNFalpha-induced epithelial-mesenchymal transition at 15 uM; type: functional, cell-based
# [6] = Synergistic cytotoxicity in human G88 cells assessed as combination index at 2 uM in presence of imatinib incubated for 5 days; type: functional
# A-375 [7] = assay: Antitumor activity against human A375 cells xenografted in athymic nu/nu mouse assessed as increase in mouse survival at 50 mg/kg dosed via daily oral gavage starting 6 days post-tumor implantation and measured up to 50 days post tumor implantation; type: functional, organism-based
# U-251 [8] = assay: Induction of apoptosis in human U251 cells at 10 to 20 uM in presence of apoptosis inhibitor ZVAD-FMK by Annexin V-PE and 7-AAD staining based flow cytometry; type: functional, cell-based
# U-251 [9] = assay: Antitumor activity against human U251 cells xenografted in athymic nu/nu mouse assessed as increase in mouse survival at 50 mg/kg dosed via daily oral gavage starting 7 days post-tumor implantation and measured up to 50 days post tumor implantation; type: functional, organism-based
# [10] = target: Diacylglycerol kinase alpha (Homo sapiens) (UniProt P23743); assay: Inhibition of DGKa in human JWL578 cells transfected with mTOR promoter assessed as decrease in mTOR promoter activity at 20 uM incubated for 36 to 48 hrs by luciferase reporter gene assay; type: cell-based
# VMM39 [11] = assay: Induction of apoptosis in human VMM39 cells at 10 to 20 uM by Annexin V-PE and 7-AAD staining based flow cytometry; type: functional, cell-based
# GL261 [12] = assay: Antitumor activity against mouse GL261 cells implanted in mouse syngeneic immunocompetent tumor model assessed as reduction in tumor volume at 100 mg/kg dosed via daily oral gavage starting 6 days post-tumor implantation and measured up to 100 days post tumor implantation; type: functional, organism-based
# U-251 [13] = assay: Induction of autophagy in human U251 cells assessed as LC3-II accumulation at 10 to 20 uM by immunoblot analysis; type: functional, cell-based
# VMM39 [14] = assay: Cytotoxicity in human VMM39 cells assessed as reduction in cell viability at 15 uM in presence of 10 uM chloroquine incubated for 2 to 4 days by Trypan blue exclusion based hemocytometry; type: functional
# U-251 [15] = assay: Induction of apoptosis in human U251 cells at 10 to 20 uM by Annexin V-PE and 7-AAD staining based flow cytometry; type: functional, cell-based
# [16] = target: Diacylglycerol kinase alpha (Homo sapiens) (UniProt P23743); assay: Inhibition of DGKa in human U251 cells assessed as reduction in p53 phosphorylation at S15 residues at 12.5 to 17.5 uM incubated for 24 hrs by immunoblot analysis; type: cell-based
# VMM39 [17] = assay: Induction of apoptosis in human VMM39 cells at 10 to 20 uM in presence of apoptosis inhibitor ZVAD-FMK by Annexin V-PE and 7-AAD staining based flow cytometry; type: functional, cell-based
# [18] = target: Diacylglycerol kinase alpha (Homo sapiens) (UniProt P23743); assay: Inhibition of DGKa in human U251 cells assessed as reduction in P70 S6K phosphorylation at T389/T421 residues at 15 uM incubated for 24 hrs by dot-blot proteomics assay relative to baseline; type: cell-based
# A-375 [19] = assay: Antitumor activity against human A375 cells xenografted in athymic nu/nu mouse assessed as reduction in tumor volume at 50 mg/kg dosed via daily oral gavage starting 6 days post-tumor implantation and measured up to 50 days post tumor implantation; type: functional, organism-based
# VMM39 [20] = assay: Cytotoxicity in human VMM39 cells assessed as reduction in cell viability at 2.5 to 22.5 uM by alamar blue dye based assay; type: functional
# [21] = target: Diacylglycerol kinase alpha (Homo sapiens) (UniProt P23743); assay: Inhibition of DGKa in human G88 cells assessed as decrease in NF-kappaB expression under 4 Gy irradiation by luciferase reporter gene assay; type: cell-based
# [22] = target: Diacylglycerol kinase alpha (Homo sapiens) (UniProt P23743); assay: Inhibition of DGKa in human G2 cells assessed as decrease in NF-kappaB expression under 4 Gy irradiation by luciferase reporter gene assay; type: cell-based
# [23] = target: Diacylglycerol kinase alpha (Homo sapiens) (UniProt P23743); assay: Inhibition of DGKa in human VMM39 cells assessed as reduction in p53 phosphorylation at S15 residues at 12.5 to 17.5 uM incubated for 24 hrs by immunoblot analysis; type: cell-based
# B16 = assay: Cytotoxicity in mouse B16 cells assessed as reduction in cell viability at 10 uM in presence of 5 uM chloroquine incubated for 2 to 4 days by Trypan blue exclusion based hemocytometry; type: functional
# Astrocyte [24] = assay: Cytotoxicity against immortalized astrocytes (unknown origin) assessed as reduction in cell viability at 10 to 15 uM in presence of 10 uM chloroquine incubated for 2 to 4 days by Trypan blue exclusion based hemocytometry
# [25] = Synergistic cytotoxicity in human G2 cells assessed as combination index at 2 uM in presence of imatinib incubated for 5 days; type: functional
# Homo sapiens [26] = organism: Homo sapiens; assay: Cytotoxicity in G528 cells (unknown origin) assessed as reduction in cell viability at 10 to 15 uM in presence of 10 uM chloroquine incubated for 2 to 4 days by Trypan blue exclusion based hemocytometry; type: functional
# VMM39 [27] = assay: Synergistic cytotoxicity in human VMM39 cells assessed as reduction in cell viability at 7.5 uM in presence of 50 uM TMZ by alamar blue dye based assay; type: functional
# Astrocyte [28] = assay: Cytotoxicity against immortalized astrocytes (unknown origin) assessed as reduction in cell viability at >20 uM incubated for 2 to 4 days by Trypan blue exclusion based hemocytometry
# [29] = target: Diacylglycerol kinase alpha (Homo sapiens) (UniProt P23743); assay: Inhibition of DGKa in human U251 cells transfected with HIF1a promoter assessed as decrease in HIF1a promoter activity at 20 uM incubated for 36 to 48 hrs by luciferase reporter gene assay; type: cell-based
# [30] = target: Diacylglycerol kinase alpha (Homo sapiens) (UniProt P23743); assay: Inhibition of DGKa in human U251 cells assessed as reduction in p53 phosphorylation at S15 residues at 15 uM incubated for 24 hrs by dot-blot proteomics assay relative to baseline; type: cell-based
# [31] = target: Diacylglycerol kinase alpha (Homo sapiens) (UniProt P23743); assay: Inhibition of DGKa in human U251 cells assessed as HSP60 protein level at 15 uM incubated for 24 hrs by dot-blot proteomics assay relative to baseline; type: cell-based; parameters: scale not given: the % may be the effect or the level left
# Homo sapiens [32] = organism: Homo sapiens; assay: Cytotoxicity in human GB464 cells with TNFalpha-induced proneural-to- mesenchymal transition at 8 uM; type: functional, cell-based
# [33] = target: Diacylglycerol kinase alpha (Homo sapiens) (UniProt P23743); assay: Inhibition of DGKa in human U251 cells transfected with mTOR promoter assessed as decrease in mTOR promoter activity at 20 uM incubated for 36 to 48 hrs by luciferase reporter gene assay; type: cell-based
# Homo sapiens [34] = organism: Homo sapiens; assay: Cytotoxicity in G34 cells (unknown origin) assessed as reduction in cell viability at 10 uM in presence of 5 uM chloroquine incubated for 2 to 4 days by Trypan blue exclusion based hemocytometry; type: functional
# U-251 [35] = assay: Cytotoxicity in human U251 cells assessed as reduction in cell viability at 10 uM in presence of 20 uM chloroquine incubated for 2 to 4 days by Trypan blue exclusion based hemocytometry; type: functional
# U-251 [36] = assay: Induction of autophagy in human U251 cells assessed as LC3-II accumulation at 10 uM in presence of 20 uM chloroquine by immunoblot analysis; type: functional, cell-based
# [37] = target: Diacylglycerol kinase alpha (Homo sapiens) (UniProt P23743); assay: Inhibition of DGKa in human G2 cells assessed as decrease in RhoA expression by ELISA; type: cell-based
# Homo sapiens [38] = organism: Homo sapiens; assay: Cytotoxicity in human JWL578 cells assessed as reduction in cell viability at 10 uM in presence of phosphatidic acid incubated for 2 to 4 days by Trypan blue exclusion based hemocytometry; type: functional
# U-251 [39] = assay: Synergistic cytotoxicity in human U251 cells assessed as reduction in cell viability at 7.5 uM in presence of 50 uM TMZ by alamar blue dye based assay; type: functional
# [40] = target: Diacylglycerol kinase alpha (Homo sapiens) (UniProt P23743); assay: Inhibition of DGKa in human G2 cells assessed as decrease in GGTase-1 by measuring increase in unprenylated ras-related protein RaplA expression by immunoblot analysis; type: cell-based
# VMM39 [41] = assay: Antitumor activity against human VMM39 cells xenografted in athymic nu/nu mouse assessed as induction of delay in tumor formation at 50 mg/kg dosed via daily oral gavage; type: functional, organism-based
# GL261 [42] = assay: Cytotoxicity in mouse GL261 cells assessed as reduction in cell viability at 10 uM in presence of 10 uM chloroquine incubated for 2 to 4 days by Trypan blue exclusion based hemocytometry; type: functional
# VMM39 [43] = assay: Antitumor activity against human VMM39 cells xenografted in athymic nu/nu mouse assessed as induction of delay in tumor formation at 10 mg/kg dosed via daily oral gavage; type: functional, organism-based
# [44] = target: Diacylglycerol kinase alpha (Homo sapiens) (UniProt P23743); assay: Inhibition of DGKa in human G88 cells assessed as decrease in GGTase-1 by measuring increase in unprenylated ras-related protein RaplA expression by immunoblot analysis; type: cell-based
# U-251 [45] = assay: Cytotoxicity in human U251 cells assessed as reduction in cell viability at 2.5 to 17.5 uM by alamar blue dye based assay; type: functional
# U-251 [46] = assay: Cytotoxicity in human U251 cells assessed as reduction in cell viability at 10 uM in presence of phosphatidic acid incubated for 2 to 4 days by Trypan blue exclusion based hemocytometry; type: functional
# [47] = Selectivity ratio of cytotoxicity against human mesenchymal GBM cells to cytotoxicity against human non-mesenchymal cells at 1 to 30 uM; type: functional
# Homo sapiens [48] = organism: Homo sapiens; assay: Increase in PDGFRA expression in human G2 cells at 3 uM by immunoblot analysis; type: functional, cell-based
# [49] = target: Diacylglycerol kinase alpha (Homo sapiens) (UniProt P23743); assay: Inhibition of DGKa in human G88 cells assessed as decrease in RhoA expression by ELISA; type: cell-based
# Homo sapiens [50] = organism: Homo sapiens; assay: Cytotoxicity in human GB816 cells with TNFalpha-induced proneural-to- mesenchymal transition at 8 uM; type: functional, cell-based
# A549 = assay: Cytotoxicity in human A549 cells with TNFalpha-induced epithelial-mesenchymal transition at 15 uM; type: functional, cell-based
# GL261 [51] = assay: Antitumor activity against mouse GL261 cells implanted in mouse syngeneic immunocompetent tumor model assessed as reduction in tumor size at 50 mg/kg dosed via daily oral gavage starting 6 days post-tumor implantation and measured up to 100 days post tumor implantation by magnetic resonance imaging analysis; type: functional, organism-based
# Sequence of Diacylglycerol kinase alpha (Homo sapiens) (P23743 whole entry): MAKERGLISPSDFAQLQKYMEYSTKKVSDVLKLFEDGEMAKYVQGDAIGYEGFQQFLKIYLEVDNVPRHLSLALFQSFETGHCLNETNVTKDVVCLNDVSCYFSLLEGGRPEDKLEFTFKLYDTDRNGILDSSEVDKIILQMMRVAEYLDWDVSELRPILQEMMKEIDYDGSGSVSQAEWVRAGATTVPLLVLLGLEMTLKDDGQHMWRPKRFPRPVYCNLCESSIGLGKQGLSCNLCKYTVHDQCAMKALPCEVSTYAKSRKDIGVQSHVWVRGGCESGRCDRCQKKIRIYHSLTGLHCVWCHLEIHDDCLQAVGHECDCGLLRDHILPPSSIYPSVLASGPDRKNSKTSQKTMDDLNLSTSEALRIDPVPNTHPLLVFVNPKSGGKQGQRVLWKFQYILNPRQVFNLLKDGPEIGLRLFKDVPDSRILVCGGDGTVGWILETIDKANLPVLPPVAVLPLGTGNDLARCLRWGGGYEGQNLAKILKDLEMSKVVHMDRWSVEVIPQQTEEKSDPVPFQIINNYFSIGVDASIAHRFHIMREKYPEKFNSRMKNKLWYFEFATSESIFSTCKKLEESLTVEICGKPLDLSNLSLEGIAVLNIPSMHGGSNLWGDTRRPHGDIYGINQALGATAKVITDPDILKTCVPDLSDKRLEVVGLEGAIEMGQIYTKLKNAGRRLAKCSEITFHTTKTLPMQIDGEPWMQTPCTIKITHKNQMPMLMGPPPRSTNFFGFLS
smiles,measurement,setting,value
Cc1nc2sccn2c(=O)c1CCN1CCC(=C(c2ccccc2)c2ccc(F)cc2)CC1,inhibition,[1],Dose-dependent effect
Cc1nc2sccn2c(=O)c1CCN1CCC(=C(c2ccc(F)cc2)c2ccc(F)cc2)CC1 [RITANSERIN],Activity,Homo sapiens [2],Active
same,Activity,Homo sapiens [3],Active
same,IC50,[4],5 to 10 µM
same,Activity,Homo sapiens [5],Active
same,CI,[6],0.25
same,Activity,A-375 [7],Active
same,Activity,U-251 [8],Active
same,Activity,U-251 [9],Active
same,inhibition,[10],Active
same,Activity,VMM39 [11],Active
same,Activity,GL261 [12],Active
same,Activity,U-251 [13],Active
same,Activity,VMM39 [14],Active
same,Activity,U-251 [15],Active
same,inhibition,[16],Active
same,Activity,VMM39 [17],Active
same,inhibition,[18],Active
same,Activity,A-375 [19],Active
same,Activity,VMM39 [20],inactive
same,inhibition,[21],Active
same,inhibition,[22],Active
same,inhibition,[23],Active
same,Activity,B16,Active
same,Activity,Astrocyte [24],Non-Toxic
same,CI,[25],0.24
same,Activity,Homo sapiens [26],Active
same,Activity,VMM39 [27],<=90%
same,Activity,Astrocyte [28],Non-Toxic
same,inhibition,[29],Active
same,inhibition,[30],Active
same,Activity,[31],10%
same,inhibition,[1],Dose-dependent effect
same,Activity,Homo sapiens [32],Active
same,inhibition,[33],Active
same,Activity,Homo sapiens [34],Active
same,Activity,U-251 [35],Active
same,Activity,U-251 [36],Active
same,inhibition,[37],Active
same,Activity,Homo sapiens [38],inactive
same,Activity,U-251 [39],<=90%
same,inhibition,[40],Active
same,Activity,VMM39 [41],Active
same,Activity,GL261 [42],Active
same,Activity,VMM39 [43],inactive
same,inhibition,[44],Active
same,Activity,U-251 [45],inactive
same,Activity,U-251 [46],inactive
same,Ratio,[47],3 - 4
same,Activity,Homo sapiens [48],Active
same,inhibition,[49],Active
same,Activity,Homo sapiens [50],Active
same,Activity,A549,Active
same,Activity,GL261 [51],Active
